Reference: paper PMC6689897, “Drugging an undruggable pocket on KRAS” (Proceedings of the National Academy of Sciences of the …, 2019)

Assays:
NCI-H358 cells = experiment: RAS GTP detection (Ras G-LISA activation assay); assay type: cell-based, human; conditions: for steady-state RAS GTP levels: high growth factor conditions; for formation of GTP-loaded KRAS / RAS GTP levels: starved 24 h low serum, 2 h compound, then EGF
Procedure: When we incubated NCI-H358 cells with 50 µM 1 for 1 h, as previously observed, no change in GTP-KRAS was observed. In contrast, 20 µM ARS-1620 caused an 80% reduction of the GTP-bound RAS pool. When the 2 compounds were combined, only a 30% reduction of GTP-RAS was observed, which is in line with inhibiting the binding of GAPs with KRAS (Fig. 6D). […]
332 RAS GTP detection (Ras G-LISA Activation assay):
333 Ras-GTP levels were analyzed using a Ras G-LISA assay kit (Cytoskeleton Inc.,
335 600.000 cells were seeded in 6 wells and grown to 70% confluence. Cells were washed
337 provided protease inhibitor cocktail. Lysates were quickly frozen in liquid nitrogen
338 and stored at -80°C until further usage. After normalizing protein concentration, 40µg
339 of protein was added in duplicates to wells of the Ras G-LISA plate coated with Ras
340 GTP-binding protein and incubated at 4°C for 30 minutes while shaking at 400rpm.
341 After washing, antigen presenting buffer was added for 2 minutes. To measure bound
342 Ras GTP levels, wells were subsequently incubated with an anti-Ras primary antibody
343 (1:50) followed by a HRP-labeled secondary antibody (1:500) and finally by adding a
344 HRP detection reagent. Absorbance was measured by 490nm using an EnSpire
345 Multimode Reader (Perkin Elmer). Background was determined by a negative control
346 well and subtracted from all samples. […]

KRAS = experiment: Alpha Screen PPI assays, summary over KRAS interactions (SOS1, CRAF, PI3Kα); assay type: biochemical, human
Text: Using biochemical assays, we investigated whether 1 inhibited 3 of the 4 PPIs important for KRAS cycling (Fig. 5 A, i–iii). Namely, 1) GDP-KRAS interaction with the catalytic site of SOS ([33]), 2) GTP-KRAS interaction with the allosteric site of SOS ([34]), and 3) GTP-KRAS interaction with downstream effectors (CRAF and PI3Kα). We were unable to establish a biochemical assay for the fourth intervention point, namely, 4) GTP-KRAS interaction with its GAPs (Fig. 5 A, iv). As a reference compound for these assays, we used the KRAS^G12C-specific covalent inhibitor ARS-1620 ([35]). Compound 1 inhibited all 3 RAS cycle intervention points (1 to 3) in a dose-dependent manner (Fig. 5 B–E) in the range of 100 to 770 nM (SI Appendix, Table S6).
217 The coordinates and structure factors of the structures have been deposited at the
218 Protein Data Bank with the accession codes PDB Code 6GJ5, 6GJ6, 6GJ7, 6GJ8.
221 Measurements of various protein–protein interactions were performed using the Alpha
222 Screen technology developed by Perkin Elmer. Recombinant RAS proteins (H-, N-, K-
223 RAS variants; all KRAS variants are based on KRAS isoform 4B (uniprot id P01116-2);
224 KRAS (G12D) 1-169, N-terminal 6His-tag, C-terminal avi-tag was from Xtal
225 BioStructures, Inc., KRAS (G12C) 1-169, C-terminal avi-tag, biotinylated, mutations:
226 C51S, C80L, C118S, NRAS(wt) 1-172, C-terminal avi-tag, biotinylated; HRAS(wt) 1-
227 166, C-terminal avi-tag, biotinylated). Biotinylation was performed in vitro with
228 recombinant BirA biotin-protein ligase as recommended by the manufacturer (Avidity
229 LLC, Aurora, Colorado, USA). Interacting proteins such as SOS1 (564-1049, N-terminal
230 GST-tag, TEV cleavage site), cRaf (1-303, N-terminal GST-tag, TEV cleavage site) and
231 PI3KA- RBD (160-317, N-term-HIS_GST-tag) were expressed as glutathione S […]
245 for 60 min in the dark at room temperature. Single oxygen induced fluorescence was
246 measured at an Enspire multimode plate reader (Perkin Elmer) according to the
247 manufacturer’s recommendations. Data were analyzed using the GraphPad Prism data […]

| SMILES | reduction of the GTP-bound RAS pool (NCI-H358 cells; 20 µM ARS-1620) [%] | steady-state RAS GTP levels (NCI-H358 cells) | formation of GTP-loaded KRAS / RAS GTP levels (NCI-H358 cells) | activity in all GTP-dependent KRAS assays (KRAS) | reduction of GTP-RAS (NCI-H358 cells; 50 µM 1 combined with 20 µM ARS-1620) [%] | change in GTP-KRAS (NCI-H358 cells; 50 µM 1 for 1 h) | IC50 (KRAS; GDP-KRAS::SOS, GTP-KRAS::SOS, GTP-KRAS::effectors (CRAF, PI3Kα), read-out: inhibition of all 3 RAS cycle intervention points, range) [nM] |
| --- | --- | --- | --- | --- | --- | --- | --- |
| C=CC(=O)N1CCN(c2ncnc3c(F)c(-c4c(O)cccc4F)c(Cl)cc23)CC1 [ARS-1620, reference compound] | 80 | strongly reduced | reduced the RAS GTP levels even below the DMSO control | inactive | – | – | – |
| Cn1cnc(Cn2ccc3ccc(CNCc4[nH]c5ccccc5c4[C@H]4NC(=O)c5ccc(O)cc54)cc32)c1 [Compound 1] | – | does not change | dose-dependent inhibition | – | 30 | no change | 100 to 770 |
